Read-outs that look alike come from different tables or passages of the source.
Assay: Plasma pharmacokinetics after single dose (C1D1), LC-MS/MS
Assay type: in vivo, human
Conditions: for half-life / Vd/F / AUC(0-t) / Tmax / Cmax: human, plasma, oral
Method: At C1D1 in every dosing schedule cohort, a single dose was administered followed by 168 h (i.e., 7 days) of intensive PK sampling. Following cycle 1, the multiple-dose treatment schedules (described above) began in cycle 2. PK parameters were derived following single dose combined across all schedules and multiple doses at cycle 2 for each schedule. […] PK assessments were evaluated for BMS-986158 and its metabolite using plasma samples at regular intervals. Both the parent and metabolite samples were simultaneously analyzed using a validated liquid chromatography and tandem mass spectrometry assay.
All treated patients who received ≥1 dose of BMS-986158 were evaluated in the safety population. […] All treated patients with available and sufficient serum or plasma samples for the corresponding analytes were included in the PK analyses. […] ECG parameters were evaluated in a categorical analysis, and linear mixed-effects regression modeling was used to describe the quantitative relationship between ΔQTcF and time-matched serum concentrations of BMS-986158 or its metabolite at a single dose.

- Dose proportionality of plasma concentrations (0.75–4.5 mg): dose proportional
- half-life (0.75 mg, cohort Schedule A, 0.75 mg, n = 4, read-out: Effective T1/2, mean (SD) (converted)): 33.7 h
- Vd/F (0.75 mg, cohort Schedule A, 0.75 mg, n = 4, read-out: Vz/F, GM (%CV)): 14.7 L
- AUC(0-t) (0.75 mg, cohort Schedule A, 0.75 mg, n = 5, read-out: AUC(0–24), GM (%CV)): 1030 ng·h/mL
- AUC(0-t) (0.75 mg, cohort Schedule A, 0.75 mg, n = 5, read-out: AUC(0–T), GM (%CV)): 2150 ng·h/mL
- Tmax (0.75 mg, cohort Schedule A, 0.75 mg, n = 5, read-out: Tmax, median): 4 h
- Cmax (0.75 mg, cohort Schedule A, n = 5): 68.8 ng/mL
- AUC(0-t) (1.25 mg, cohort Schedule A, 1.25 mg, n = 3, read-out: AUC(0–24), GM (%CV)): 2310 ng·h/mL
- AUC(0-t) (1.25 mg, cohort Schedule A, 1.25 mg, n = 3, read-out: AUC(0–T), GM (%CV)): 6370 ng·h/mL
- half-life (1.25 mg, cohort Schedule A, 1.25 mg, n = 3, read-out: Effective T1/2, mean (SD) (converted)): 48.7 h
- Tmax (1.25 mg, cohort Schedule A, 1.25 mg, n = 3, read-out: Tmax, median): 1 h
- Vd/F (1.25 mg, cohort Schedule A, 1.25 mg, n = 3, read-out: Vz/F, GM (%CV)): 12.5 L
- Cmax (1.25 mg, cohort Schedule A, n = 3): 175 ng/mL
- half-life (2 mg, cohort Schedule A, 2.0 mg, n = 4, read-out: Effective T1/2, mean (SD) (converted)): 41.4 h
- Vd/F (2 mg, cohort Schedule A, 2.0 mg, n = 4, read-out: Vz/F, GM (%CV)): 14.6 L
- AUC(0-t) (2 mg, cohort Schedule A, 2.0 mg, n = 9, read-out: AUC(0–24), GM (%CV)): 3610 ng·h/mL
- AUC(0-t) (2 mg, cohort Schedule A, 2.0 mg, n = 9, read-out: AUC(0–T), GM (%CV)): 8560 ng·h/mL
- Tmax (2 mg, cohort Schedule A, 2.0 mg, n = 9, read-out: Tmax, median): 2 h
- Cmax (2 mg, cohort Schedule A, n = 9): 260 ng/mL
- AUC(0-t) (2 mg, cohort Schedule B, 2.0 mg, n = 1, read-out: AUC(0–24), GM (%CV)): 2360 ng·h/mL
- AUC(0-t) (2 mg, cohort Schedule B, 2.0 mg, n = 1, read-out: AUC(0–T), GM (%CV)): 5200 ng·h/mL
- half-life (2 mg, cohort Schedule B, 2.0 mg, n = 1, read-out: Effective T1/2, mean (SD) (converted)): 44.2 h
- Tmax (2 mg, cohort Schedule B, 2.0 mg, n = 1, read-out: Tmax, median): 1 h
- Vd/F (2 mg, cohort Schedule B, 2.0 mg, n = 1, read-out: Vz/F, GM (%CV)): 23.2 L
- Cmax (2 mg, cohort Schedule B, n = 1): 207 ng/mL
- AUC(0-t) (2 mg, cohort Schedule C, 2.0 mg, n = 6, read-out: AUC(0–24), GM (%CV)): 3660 ng·h/mL
- AUC(0-t) (2 mg, cohort Schedule C, 2.0 mg, n = 6, read-out: AUC(0–T), GM (%CV)): 10900 ng·h/mL
- half-life (2 mg, cohort Schedule C, 2.0 mg, n = 6, read-out: Effective T1/2, mean (SD) (converted)): 64.6 h
- Tmax (2 mg, cohort Schedule C, 2.0 mg, n = 6, read-out: Tmax, median): 1 h
- Vd/F (2 mg, cohort Schedule C, 2.0 mg, n = 6, read-out: Vz/F, GM (%CV)): 13.9 L
- Cmax (2 mg, cohort Schedule C, n = 6): 295 ng/mL
- half-life (3 mg, cohort Schedule A, 3.0 mg, n = 7, read-out: Effective T1/2, mean (SD) (converted)): 33.3 h
- Vd/F (3 mg, cohort Schedule A, 3.0 mg, n = 7, read-out: Vz/F, GM (%CV)): 12.8 L
- AUC(0-t) (3 mg, cohort Schedule A, 3.0 mg, n = 10, read-out: AUC(0–24), GM (%CV)): 4940 ng·h/mL
- AUC(0-t) (3 mg, cohort Schedule A, 3.0 mg, n = 10, read-out: AUC(0–T), GM (%CV)): 10500 ng·h/mL
- Tmax (3 mg, cohort Schedule A, 3.0 mg, n = 10, read-out: Tmax, median): 2 h
- Cmax (3 mg, cohort Schedule A, n = 10): 328 ng/mL
- half-life (3 mg, cohort Schedule B, 3.0 mg, n = 1, read-out: Effective T1/2, mean (SD) (converted)): 54 h
- Vd/F (3 mg, cohort Schedule B, 3.0 mg, n = 1, read-out: Vz/F, GM (%CV)): 15.3 L
- AUC(0-t) (3 mg, cohort Schedule B, 3.0 mg, n = 4, read-out: AUC(0–24), GM (%CV)): 6920 ng·h/mL
- AUC(0-t) (3 mg, cohort Schedule B, 3.0 mg, n = 4, read-out: AUC(0–T), GM (%CV)): 28900 ng·h/mL
- Tmax (3 mg, cohort Schedule B, 3.0 mg, n = 4, read-out: Tmax, median): 1.03 h
- Cmax (3 mg, cohort Schedule B, n = 4): 481 ng/mL
- half-life (3 mg, cohort Schedule C, 3.0 mg, n = 10, read-out: Effective T1/2, mean (SD) (converted)): 48.2 h
- Vd/F (3 mg, cohort Schedule C, 3.0 mg, n = 10, read-out: Vz/F, GM (%CV)): 15.6 L
- AUC(0-t) (3 mg, cohort Schedule C, 3.0 mg, n = 11, read-out: AUC(0–24), GM (%CV)): 4470 ng·h/mL
- AUC(0-t) (3 mg, cohort Schedule C, 3.0 mg, n = 11, read-out: AUC(0–T), GM (%CV)): 11500 ng·h/mL
- Tmax (3 mg, cohort Schedule C, 3.0 mg, n = 11, read-out: Tmax, median): 1 h
- Cmax (3 mg, cohort Schedule C, n = 11): 370 ng/mL
- half-life (4.5 mg, cohort Schedule A, 4.5 mg, n = 9, read-out: Effective T1/2, mean (SD) (converted)): 48.3 h
- Vd/F (4.5 mg, cohort Schedule A, 4.5 mg, n = 9, read-out: Vz/F, GM (%CV)): 15.7 L
- AUC(0-t) (4.5 mg, cohort Schedule A, 4.5 mg, n = 10, read-out: AUC(0–24), GM (%CV)): 6790 ng·h/mL
- AUC(0-t) (4.5 mg, cohort Schedule A, 4.5 mg, n = 10, read-out: AUC(0–T), GM (%CV)): 19100 ng·h/mL
- Tmax (4.5 mg, cohort Schedule A, 4.5 mg, n = 10, read-out: Tmax, median): 2.04 h
- Cmax (4.5 mg, cohort Schedule A, n = 10): 478 ng/mL
- half-life (4.5 mg, cohort Schedule C, 4.5 mg, n = 5, read-out: Effective T1/2, mean (SD) (converted)): 35.7 h
- Vd/F (4.5 mg, cohort Schedule C, 4.5 mg, n = 5, read-out: Vz/F, GM (%CV)): 11.6 L
- AUC(0-t) (4.5 mg, cohort Schedule C, 4.5 mg, n = 7, read-out: AUC(0–24), GM (%CV)): 7420 ng·h/mL
- AUC(0-t) (4.5 mg, cohort Schedule C, 4.5 mg, n = 7, read-out: AUC(0–T), GM (%CV)): 17200 ng·h/mL
- Tmax (4.5 mg, cohort Schedule C, 4.5 mg, n = 7, read-out: Tmax, median): 2.02 h
- Cmax (4.5 mg, cohort Schedule C, n = 7): 567 ng/mL
- Tmax (0.75–4.5 mg, read-out: Time to peak plasma concentration (median Tmax)): 1 to 4 h
- half-life (read-out: Mean T1/2, range across doses): 34 to 54 h
SMILES: Cc1nnn(C)c1-c1cnc2c3ccc(C(C)(C)O)cc3n([C@H](c3ccccc3)C3CCOCC3)c2c1 [BMS-986158]

Source: PMC9454848, “BMS-986158, a Small Molecule Inhibitor of the Bromodomain and Extraterminal Domain Proteins, in Patients with Selected Advanced Solid Tumors: Results from a Phase 1/2a Trial” (Cancers, 2022)
